From PubChem BioAssay (NCI)
“And” between values parts separate entries of the source, which are not always exact repeats. Identical values can stand only once.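 Five compound concentrations were applied to cells in 96-well plates for 48 hours; endpoints were derived by simple linear interpolation of the resulting dose-response curve. GI50 = concentration required for 50% inhibition of growth. TGI: total growth inhibition.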

What was measured:
Assay in all cases: NCI anticancer screen, dose series, 48 h; in the data active = GI50 below about 0.43 µM; inactive = the rest
HCT-15 colon = system: HCT-15 colon
DU-145 prostate = system: DU-145 prostate
NCI-H226 lung = system: NCI-H226 lung
HOP-92 NSCLC = system: HOP-92 NSCLC
SK-OV-3 ovarian = system: SK-OV-3 ovarian
OVCAR-4 ovarian = system: OVCAR-4 ovarian
KM12 colon = system: KM12 colon
RXF 393 renal = system: RXF 393 renal
T-47D breast = system: T-47D breast
UACC-257 melanoma = system: UACC-257 melanoma

O=[N+]([O-])c1cc(Cc2cc([N+](=O)[O-])c3cccnc3c2O)c(O)c2ncccc12
54 µM: TGI (DU-145 prostate)
> 74.1 µM: TGI (OVCAR-4 ovarian)
18 µM: TGI (RXF 393 renal) | TGI (T-47D breast)
43.5 µM: TGI (NCI-H226 lung)
37.5 µM: TGI (SK-OV-3 ovarian)
37.1 µM: TGI (HOP-92 NSCLC)
25.8 µM: TGI (KM12 colon)
66.4 µM: TGI (HCT-15 colon)
14.1 µM: TGI (UACC-257 melanoma)

CN1C(=NCCO)NS(=O)(=O)c2ccccc21
> 100 µM: TGI (HCT-15 colon) | TGI (DU-145 prostate) | TGI (NCI-H226 lung) | TGI (HOP-92 NSCLC) | TGI (SK-OV-3 ovarian) | TGI (OVCAR-4 ovarian) | TGI (KM12 colon) | TGI (RXF 393 renal) | TGI (T-47D breast) | TGI (UACC-257 melanoma)

CCOC(=O)C(Cc1ccc(N(CCCl)CCCl)cc1)NC(=O)C(Cc1ccccc1)NC(C)=O (configuration not stated)
> 0.928 µM: TGI (T-47D breast)
> 0.565 µM: TGI (KM12 colon)
> 1 µM: TGI (HCT-15 colon) | TGI (DU-145 prostate) | TGI (NCI-H226 lung) | TGI (HOP-92 NSCLC)
> 0.486 µM: TGI (UACC-257 melanoma)
0.0353 µM: TGI (OVCAR-4 ovarian)
0.259 µM: TGI (RXF 393 renal)
> 0.44 µM: TGI (SK-OV-3 ovarian)

N#C/C(=C\c1cc2ccc(N3CCC3)cc2oc1=O)C(=O)N(CC(=O)O)CC(=O)O
> 100 µM: TGI (HCT-15 colon) | TGI (DU-145 prostate) | TGI (NCI-H226 lung) | TGI (HOP-92 NSCLC) | TGI (SK-OV-3 ovarian) | TGI (OVCAR-4 ovarian) | TGI (KM12 colon) | TGI (RXF 393 renal) | TGI (T-47D breast) | TGI (UACC-257 melanoma)
inactive: GI50 (HCT-15 colon) 95.5 µM | GI50 (DU-145 prostate) > 100 µM | GI50 (NCI-H226 lung) > 100 µM | GI50 (HOP-92 NSCLC) > 100 µM | GI50 (SK-OV-3 ovarian) > 100 µM | GI50 (OVCAR-4 ovarian) > 100 µM | GI50 (KM12 colon) > 100 µM | GI50 (RXF 393 renal) > 100 µM | GI50 (T-47D breast) > 100 µM | GI50 (UACC-257 melanoma) > 100 µM

O=C(c1cc(Cc2n[nH]c(=O)c3ccccc23)ccc1F)N1CCN(C(=O)C2CC2)CC1
> 100 µM: TGI (HCT-15 colon) | TGI (DU-145 prostate) | TGI (NCI-H226 lung) | TGI (HOP-92 NSCLC) | TGI (SK-OV-3 ovarian) | TGI (OVCAR-4 ovarian) | TGI (KM12 colon) | TGI (RXF 393 renal) | TGI (T-47D breast) | TGI (UACC-257 melanoma)
inactive: GI50 (HCT-15 colon) > 100 µM | GI50 (DU-145 prostate) 33.5 µM and > 100 µM | GI50 (NCI-H226 lung) 41.3 µM and 48.8 µM | GI50 (SK-OV-3 ovarian) > 100 µM | GI50 (OVCAR-4 ovarian) 22.7 µM and 36 µM | GI50 (KM12 colon) > 100 µM | GI50 (RXF 393 renal) 52.1 µM and > 41.4 µM | GI50 (T-47D breast) 31.5 µM | GI50 (UACC-257 melanoma) > 100 µM

Cn1c(C(=O)c2cccc3ccccc23)nc2ccccc21
> 100 µM: TGI (HCT-15 colon) | TGI (DU-145 prostate) | TGI (NCI-H226 lung) | TGI (HOP-92 NSCLC) | TGI (SK-OV-3 ovarian) | TGI (OVCAR-4 ovarian) | TGI (KM12 colon) | TGI (RXF 393 renal) | TGI (T-47D breast) | TGI (UACC-257 melanoma)
inactive: GI50 (HCT-15 colon) > 100 µM | GI50 (DU-145 prostate) > 100 µM | GI50 (NCI-H226 lung) > 100 µM | GI50 (HOP-92 NSCLC) 35.9 µM | GI50 (SK-OV-3 ovarian) > 100 µM | GI50 (OVCAR-4 ovarian) 35.1 µM | GI50 (KM12 colon) > 100 µM | GI50 (RXF 393 renal) > 100 µM | GI50 (T-47D breast) 22 µM | GI50 (UACC-257 melanoma) > 100 µM

O=C1/C(=C/c2ccccc2O)N=C(c2ccccc2)N1c1cc(C(F)(F)F)ccc1Cl
> 100 µM: TGI (HCT-15 colon) | TGI (DU-145 prostate) | TGI (NCI-H226 lung) | TGI (SK-OV-3 ovarian) | TGI (OVCAR-4 ovarian) | TGI (KM12 colon) | TGI (T-47D breast) | TGI (UACC-257 melanoma)
inactive: GI50 (HCT-15 colon) 64.7 µM | GI50 (DU-145 prostate) 43.8 µM | GI50 (NCI-H226 lung) 33 µM | GI50 (HOP-92 NSCLC) 19.1 µM | GI50 (SK-OV-3 ovarian) 43.7 µM | GI50 (OVCAR-4 ovarian) > 100 µM | GI50 (KM12 colon) 8.29 µM | GI50 (RXF 393 renal) 29.9 µM | GI50 (T-47D breast) 6.68 µM | GI50 (UACC-257 melanoma) > 100 µM
53 µM: TGI (HOP-92 NSCLC)
81.3 µM: TGI (RXF 393 renal)

COCCOCCOCCOCCOC(=O)OC[n+]1ccc(NC(=NCCCCCCOc2ccc(Cl)cc2)NC#N)cc1
17.3 µM: TGI (KM12 colon)
19.9 µM: TGI (OVCAR-4 ovarian)
23.6 µM: TGI (SK-OV-3 ovarian)
16.3 µM: TGI (HOP-92 NSCLC)
30.4 µM: TGI (NCI-H226 lung)
17.9 µM: TGI (HCT-15 colon)
inactive: GI50 (NCI-H226 lung) 12.7 µM | GI50 (HOP-92 NSCLC) 1.7 µM | GI50 (SK-OV-3 ovarian) 11.3 µM | GI50 (OVCAR-4 ovarian) 6.47 µM | GI50 (RXF 393 renal) 7.44 µM | GI50 (UACC-257 melanoma) 7.79 µM
17.5 µM: TGI (T-47D breast)
21.8 µM: TGI (UACC-257 melanoma)
18.2 µM: TGI (DU-145 prostate)
22.3 µM: TGI (RXF 393 renal)
active: GI50 (HCT-15 colon) < 0.01 µM | GI50 (DU-145 prostate) 0.0616 µM | GI50 (KM12 colon) < 0.0377 µM | GI50 (T-47D breast) 0.112 µM

COc1cc(C(=O)/C=C/c2c(C(F)(F)F)nc3ccccn23)cc(OC)c1OC
3.91 µM: TGI (RXF 393 renal)
> 100 µM: TGI (OVCAR-4 ovarian)
15 µM: TGI (T-47D breast)
19 µM: TGI (SK-OV-3 ovarian)
9.94 µM: TGI (HOP-92 NSCLC)
21.7 µM: TGI (NCI-H226 lung)
inactive: GI50 (HCT-15 colon) 2.1 µM | GI50 (DU-145 prostate) 1.61 µM | GI50 (NCI-H226 lung) 3.55 µM | GI50 (HOP-92 NSCLC) 2.65 µM | GI50 (SK-OV-3 ovarian) 4.04 µM | GI50 (OVCAR-4 ovarian) 4.1 µM | GI50 (KM12 colon) 1.73 µM | GI50 (RXF 393 renal) 1.87 µM | GI50 (T-47D breast) 3.52 µM | GI50 (UACC-257 melanoma) 2.05 µM
3.64 µM: TGI (KM12 colon)
7.57 µM: TGI (HCT-15 colon)
5.08 µM: TGI (UACC-257 melanoma)
3.51 µM: TGI (DU-145 prostate)

[Cl][Cu][Cl]
inactive: GI50 (HCT-15 colon) > 10 µM | GI50 (DU-145 prostate) > 10 µM | GI50 (NCI-H226 lung) > 10 µM | GI50 (HOP-92 NSCLC) > 10 µM | GI50 (SK-OV-3 ovarian) > 10 µM | GI50 (OVCAR-4 ovarian) > 10 µM | GI50 (KM12 colon) > 10 µM | GI50 (RXF 393 renal) > 10 µM | GI50 (T-47D breast) > 10 µM | GI50 (UACC-257 melanoma) > 10 µM
> 10 µM: TGI (HCT-15 colon) | TGI (DU-145 prostate) | TGI (NCI-H226 lung) | TGI (HOP-92 NSCLC) | TGI (SK-OV-3 ovarian) | TGI (OVCAR-4 ovarian) | TGI (KM12 colon) | TGI (RXF 393 renal) | TGI (T-47D breast) | TGI (UACC-257 melanoma)

C#CCNC(=O)NC(CCCCNC(=O)OCc1ccccc1)C(=O)OCc1ccccc1 (configuration not stated)
> 100 µM: TGI (HCT-15 colon) | TGI (DU-145 prostate) | TGI (NCI-H226 lung) | TGI (SK-OV-3 ovarian) | TGI (OVCAR-4 ovarian) | TGI (KM12 colon)
43.9 µM: TGI (UACC-257 melanoma)
> 32.4 µM: TGI (T-47D breast)
43.1 µM: TGI (RXF 393 renal)
54 µM: TGI (HOP-92 NSCLC)

N#Cc1c(NC(=O)c2ccccc2F)sc2c1CCCC2
inactive: GI50 (HCT-15 colon) 21.1 µM | GI50 (DU-145 prostate) > 25 µM | GI50 (NCI-H226 lung) > 25 µM | GI50 (HOP-92 NSCLC) > 25 µM | GI50 (SK-OV-3 ovarian) > 25 µM | GI50 (OVCAR-4 ovarian) > 25 µM | GI50 (KM12 colon) 5.12 µM | GI50 (RXF 393 renal) > 25 µM | GI50 (T-47D breast) > 25 µM | GI50 (UACC-257 melanoma) > 25 µM
> 25 µM: TGI (HCT-15 colon) | TGI (DU-145 prostate) | TGI (NCI-H226 lung) | TGI (HOP-92 NSCLC) | TGI (SK-OV-3 ovarian) | TGI (OVCAR-4 ovarian) | TGI (KM12 colon) | TGI (RXF 393 renal) | TGI (T-47D breast) | TGI (UACC-257 melanoma)

O=c1[nH]c(=S)[nH]c(-c2ccccc2)c1Cc1c(O)ccc2ccccc12
> 100 µM: TGI (HCT-15 colon) | TGI (DU-145 prostate) | TGI (HOP-92 NSCLC) | TGI (SK-OV-3 ovarian) | TGI (OVCAR-4 ovarian) | TGI (KM12 colon)
82.1 µM: TGI (NCI-H226 lung)
95.1 µM: TGI (RXF 393 renal)
62.7 µM: TGI (UACC-257 melanoma)
58 µM: TGI (T-47D breast)

COc1c(OC(C)C)cc2cc(O)c(C(=O)NC3Cc4ccc(c(Cl)n4)O[C@@H]4C=C5C#C/C(=C\C#CC6OC56C4OC4CC(C)(O)C(O)C(C)O4)C(OC4CC(O)C(N(C)C)C(C)O4)COC3=O)cc2c1OC (some centres not stated)
> 36.3 µM and 1.92 µg/mL: TGI (RXF 393 renal)
> 36.3 µM and 37.5 µg/mL: TGI (HCT-15 colon) | TGI (NCI-H226 lung) | TGI (OVCAR-4 ovarian) | TGI (KM12 colon) | TGI (UACC-257 melanoma)
inactive: GI50 (HCT-15 colon) > 36.3 µM and 9.57 µg/mL | GI50 (NCI-H226 lung) 2.8 µg/mL | GI50 (HOP-92 NSCLC) 0.482 µg/mL | GI50 (SK-OV-3 ovarian) 2.75 µg/mL | GI50 (OVCAR-4 ovarian) > 36.3 µM and 30.8 µg/mL | GI50 (KM12 colon) > 36.3 µM and 10.1 µg/mL | GI50 (RXF 393 renal) 0.568 µg/mL | GI50 (UACC-257 melanoma) 21.9 µM and 1.08 µg/mL
37.5 µg/mL: TGI (SK-OV-3 ovarian)
> 36.3 µM: TGI (DU-145 prostate) | TGI (T-47D breast)
> 36.3 µM and 2.94 µg/mL: TGI (HOP-92 NSCLC)
